≈ marks a conversion by molar mass, not a printed value. Where two headings read alike, the source gives them in different places.
Experiments:
[1] = Study 2: PPI (rabeprazole) interaction clinical study, single oral dose of encorafenib, plasma PK and safety; type: in vivo, human; settings: for Tmax: median (range); for Vd/F: read-out: Vz/F; for CL/F: mean ± SD
Method: Both studies were conducted at the Celerion Clinical Research Unit in Lincoln, NE. The trial protocols and informed consent documentation were reviewed and approved by the institutional review boards at the center. These studies were conducted in compliance with the ethical principles originating in or derived from the Declaration of Helsinki and in compliance with all International Council for Harmonization Good Clinical Practice Guideline.
The AEs described were consistent with the known safety profile of encorafenib.
Additionally, participants were instructed not to crush, split, or chew the study drug. […]
The actual sample collection times were used for the PK parameter analysis.
The overall safety profile was characterized by laboratory test abnormalities, physical examination, vital signs, ECGs, and AEs. […] Triplicate ECGs were also measured at the end of the studies or upon early termination.
These were back-transformed to obtain the GMRs and corresponding 90% CIs on the original scale. The ratios were expressed as a percentage relative to the reference treatment.

[2] = Physicochemical and biopharmaceutical properties obtained in-house (PBPK input, experimental data)
Method: Simulations were performed using the commercially available PBPK modeling platform GastroPlus 9.8 (Simulations Plus, Inc., Lancaster, CA). Input and final parameters for the model were published by Del Frari et al.[29] […] The fasted, fed, and PPI states were predicted for the encorafenib commercial capsule. All input data for the platform are shown in Table 2 and were based on physicochemical properties of the compound, formulation characteristics and absorption, distribution, metabolism, and excretion properties. […] Related to dissolution, the Johnson model was selected. This model is an extension of the Nernst–Brunner dissolution model and accounts for changing particle radius during dissolution as well as for dissolution of cylindrical particles. […] Gathered information concerning physicochemical and biopharmaceutical properties was obtained in-house. Fasted state physiology in the human GI tract was simulated by selecting the fluid volumes as observed by the magnetic resonance imaging study of Mudie et al.[30] to address biorelevant fluid volumes in the different GI compartments. In the case of the fed state, the stomach transit time was adjusted and optimized to a value of 2.25 h for consistency with the observed PK data, and the physiology was adjusted to fed state conditions (default settings). To simulate PPI conditions, the fasted state physiology was selected (magnetic resonance imaging fluid volumes). However, gastric pH was set to a constant value of pH 7 during the simulation instead of the normal gastric pH of 1.3, as used in the fasted state default settings. […] However, the same results were observed even when the gastric pH was adjusted to a value of 4 or 5 (data not shown).[31] Distribution and clearance parameters were adjusted to reflect a 2-compartmental approach based on the average PK profile of the 100 mg dose as administered in the fasted state to healthy participants (average weight, 83 kg).

[3] = set-up: method as in PMID 27693678; settings: estimated using PKPlus module, cited from earlier work
[4] = system: CYP3A4; set-up: method as in PMID 27693678; settings: fitted using in vivo data; cited from earlier work
[5] = cited from earlier work; for median Tmax: humans, single oral dose
[6] = human plasma; cited from earlier work
[7] = study 2, encorafenib 100 mg + rabeprazole
[8] = study 2, encorafenib 100 mg + rabeprazole vs alone
[9] = study 2, encorafenib 100 mg alone
[10] = study 2, encorafenib 300 mg alone
[11] = single radiolabeled dose of 100 mg

## COC(=O)N[C@@H](C)CNc1nccc(-c2cn(C(C)C)nc2-c2cc(Cl)cc(NS(C)(=O)=O)c2F)n1 [encorafenib, Encorafenib]
[1]; 300 mg dose compared with 100 mg dose, healthy participants
  tolerability: tolerated with more difficulty
[1]; human, plasma, oral, 100 mg
  AUC(0-inf): 4140 ng·h/mL
  AUC(0-t): 4120 ng·h/mL
  Cmax: 1040 ng/mL
  Vd/F: 247 ± 208 L
[1]; human, plasma, oral, 100 mg, study 2, encorafenib 100 mg alone, read-out: Tmax
  Tmax: 1.5 h
[1]; human, plasma, oral, 100 mg, read-out: t1/2 (converted)
  half-life: 7.53 ± 7.58 h
[1]; human, plasma, oral, 300 mg
  AUC(0-inf): 14800 ng·h/mL
  AUC(0-t): 14700 ng·h/mL
  Cmax: 3900 ng/mL
  Vd/F: 470 ± 339 L
[1]; human, plasma, oral, 300 mg, study 2, encorafenib 300 mg alone, read-out: Tmax
  Tmax: 1.5 h
[1]; human, plasma, oral, 300 mg, read-out: t½ (converted)
  half-life: 15.9 ± 11.6 h
[1]; human, plasma, oral, study 2, encorafenib 100 mg + rabeprazole, read-out: Tmax
  Tmax: 2 h
[1]; study 2
  changes in vital signs, laboratory values, or ECG measurements: No clinically significant changes
  participants reporting feeling hot: 53%
  participants reporting flushing: 80%
  participants reporting headache: 93%
[1]; study 2 (headache, nausea, myalgia)
  number of AEs of grade 2/moderate severity: 3 AEs
[1]; [7]
  participants reporting AEs: 82%
  CL/F: 26.31 ± 9.1417 L/h
[1]; [8]
  mean change in AUCinf with PPI coadministration: < 10%
  mean change in AUClast with PPI coadministration: < 10%
  mean change in Cmax with PPI coadministration: < 10%
[1]; study 2, encorafenib 100 mg + rabeprazole, 11 participants
  number of AEs reported: 23 AEs
[1]; [9]
  participants reporting AEs: 90%
  CL/F: 25.33 ± 8.0601 L/h
  Tmax: 1.503 (1.01, 2.00) h
[1]; study 2, encorafenib 100 mg alone, 10 participants
  number of AEs reported: 24 AEs
[1]; [10]
  participants reporting AEs: 100%
  CL/F: 20.59 ± 3.9043 L/h
[1]; study 2, encorafenib 300 mg alone, 15 participants
  number of AEs reported: 106 AEs
[1]; study 2, of 15 participants
  participants who discontinued due to an AE: 1 participants
[1]; study 2, overall
  participants reporting AEs: 15 of 15
[2]; amorphous drug in the capsule formulation (amorphous solid dispersion)
  BCS class behavior: class 1
[2]; aqueous buffer, at pH 6.8, experimental data, read-out: reference solubility (amorphous)
  solubility: 200 µg/mL (≈ 370 µM)
[2]; at pH 6.8
  amorphous solubility higher than crystalline solubility: 20 fold
[2]; at pH 6.8, experimental data
  logD: 1.8
[2]; at pH 6.8, experimental data, read-out: reference solubility (crystalline)
  solubility: 10 µg/mL (≈ 18.5 µM)
[2]; drug substance
  Biopharmaceutics Classification System (BCS) class: class 2
[2]; experimental data
  logP: 2.59
[2]; experimental data, PBPK input
  particle radius: 5 μm
[2]; experimental data, read-out: pKa (acid)
  pKa: 6.97
[2]; experimental data, read-out: pKa (base)
  pKa: 4.53
[3]; 2-compartmental, 100 mg fasted
  clearance: 16.08 L/h[31]
[3]
  K10: 0.197 h^–1[31]
  K12: 0.173 h^–1[31]
  K21: 0.016 h^–1[31]
[4]
  gut CYP3A4 Km: 213.9 mg/L
  gut CYP3A4 Vmax: 0.0945 mg/s
  liver CYP3A4 Km: 213.9 mg/L
  liver CYP3A4 Vmax: 0.0945 mg/s
[5]; dose range of 50 to 700 mg QD after a single dose
  dose proportionality: approximately dose proportional
[5]; geometric mean (coefficient of variation 70%)
  apparent volume of distribution: 164 L
[5]; fasted state
  median Tmax: approximately 2 h
[5]; fed state
  median Tmax: ~4 h
[5]; oral
  dose absorbed: at least 86%
[5]; [11]
  administered dose recovered in feces: 47%
  administered dose recovered in feces unchanged: 5%
  administered dose recovered in urine: 47%
  administered dose recovered in urine unchanged: 2%
[6]
  in vitro protein binding: 86%

— PMC10155203 (Molecular Pharmaceutics, 2023)
